Measurements taken from patent US11696916B2, “Carboxamide-pyrimidine derivatives as SHP2 antagonists” (Merck Patent GmbH, priority 2019, dated 2023).

How the values were obtained:
[1] = test system: pERK level in KYSE520 cells; assay: p-Erk cellular assay in KYSE520 (Mesoscale); assay type: cell-based; conditions: Homo sapiens, KYSE-520, 2 h, 2 h compound incubation, read-out: pERK1/2 in KYSE520 IC50
Experimental: The effect of SHP2 inhibitors on pERK level was assessed using phospho-specific antibody using Mesoscale quantification platform. For measuring change in pERK levels using mesoscale, 30,000 cells of MDA MB468 and KYSE520 cells were plated in 96-well tissue culture treated plate in 175 ul volume of media. After an overnight incubation at 37° C., various SHP2 inhibitors were added in different concentration to each well maintaining duplicate wells across plates and incubated with compounds for 2 h at 37° C. followed by a wash with ice cold PBS buffer. The cells were then lysed in lysis buffer and processed and analyzed for p-ERK/ERK as per manufacturer's instructions (Mesoscale discovery, cat No. K15107D-3).

[2] = target: Full length SHP2 protein (Recombinant Human SHP-2) (Homo sapiens (Human), UniProt Q06124); assay: SHP2 biochemical assay (DiFMUP, activating peptide IRS1_2pY); conditions: DiFMUP substrate, 60 min RT
Experimental: The inhibition of SHP2 by compounds of the invention was monitored using the surrogate substrate DiFMUP after protein activation by a peptide bearing two appropriately spaced phosphotyrosine. […] The generation of the DiFMU product by activated SHP2 was monitored through Fluorescence measurement with a PerkinElmer Envision reader. The inhibitor dose response curves were analyzed with Genedata Screener.

[3] = Pharmacokinetics in mouse; assay type: in vivo; conditions: for Cmax Normalized to 1 mgk / AUC (normalized 1 mpk): female CD1 mice; for Cmax Normalized to 1 mgk: normalized to 1 mg/kg; for AUC (normalized 1 mpk): normalized to 1 mpk; for Exposure compared to SHP-099: mouse PK
Experimental: Female CD1 mice (N=3) received a single oral (gavage) or a single intravenous (bolus) injection of compound. […] Consecutive blood samples were taken sub-lingually under isofluorane inhalation from animals after 0.083 (IV), 0.25, 0.5, 1, 2, 4, 6 and 24 h and were further processed to obtain plasma. Samples were protein precipitated and analyzed by LC/MS/MS.

Chain of Full length SHP2 protein (Recombinant Human SHP-2) (Q06124 2-593): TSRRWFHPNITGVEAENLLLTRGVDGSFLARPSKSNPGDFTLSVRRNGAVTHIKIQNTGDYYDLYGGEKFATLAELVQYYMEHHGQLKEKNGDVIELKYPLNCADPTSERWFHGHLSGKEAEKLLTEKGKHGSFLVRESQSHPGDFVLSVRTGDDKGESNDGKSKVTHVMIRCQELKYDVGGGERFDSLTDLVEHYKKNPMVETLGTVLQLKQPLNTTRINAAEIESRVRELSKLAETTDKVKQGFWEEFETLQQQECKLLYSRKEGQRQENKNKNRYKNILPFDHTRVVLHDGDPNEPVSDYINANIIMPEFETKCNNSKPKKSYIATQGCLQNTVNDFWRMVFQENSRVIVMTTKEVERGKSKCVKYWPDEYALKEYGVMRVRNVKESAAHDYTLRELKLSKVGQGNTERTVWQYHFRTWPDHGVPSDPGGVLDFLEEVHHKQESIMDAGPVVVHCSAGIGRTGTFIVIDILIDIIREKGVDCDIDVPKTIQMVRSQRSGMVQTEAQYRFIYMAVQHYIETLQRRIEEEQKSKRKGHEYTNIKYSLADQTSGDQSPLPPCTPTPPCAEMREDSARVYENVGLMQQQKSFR

SMILES	IC50 [1]	IC50 [2]	other results
NC(=O)c1nc(N2CCC3(CC2)Oc2ncccc2C3N)nc(N)c1-c1cccc(Cl)c1Cl (single isomer, unassigned) [Compound 128]	161 nM	–	–
C[C@@H]1OCC2(CCN(c3nc(N)c(-c4cccc(Cl)c4Cl)c(C(N)=O)n3)CC2)[C@@H]1N (atropisomer, axis not shown; (M)) [Compound 67, (5M)-6-amino-2-[(3S,4S)-4-amino-3-methyl-2-oxa-8-azaspiro[4.5]decan-8-yl]-5-(2,3-dichlorophenyl)pyrimidine-4-carboxamide]	–	16000 nM	–
Cc1nc(N2CCC3(CC2)CC(F)(F)C[C@H]3N)nc(C(N)=O)c1-c1cccc(Cl)c1Cl (atropisomer, axis not shown; (P)) [Compound 97, (5P)-2-[(1R)-1-amino-3,3-difluoro-8-azaspiro[4.5]decan-8-yl]-5-(2,3-dichlorophenyl)-6-methylpyrimidine-4-carboxamide]	–	4400 nM	–
Cc1nc(N2CCC3(CC2)CC(F)(F)C[C@H]3N)nc(C(N)=O)c1-c1cccc(Cl)c1Cl (atropisomer, axis not shown; (M)) [Compound 96, (5M)-2-[(1R)-1-amino-3,3-difluoro-8-azaspiro[4.5]decan-8-yl]-5-(2,3-dichlorophenyl)-6-methylpyrimidine-4-carboxamide]	–	62 nM	–
Cc1nc(N2CCC3(CC2)CO[C@@H](C)[C@H]3N)nc(C(N)=O)c1-c1cccc(Cl)c1Cl (single isomer, unassigned) [Compound 95]	–	–	Cmax Normalized to 1 mgk [3]: 150 ng/mL; AUC (normalized 1 mpk) [3]: 1214 ng·h/mL; Exposure compared to SHP-099 [3]: higher exposure
Cc1nc(N2CCC3(CC2)Oc2ncccc2[C@H]3N)nc(C(N)=O)c1-c1cccc(Cl)c1Cl [Compound 124, (4M)-2-[(3R)-3-amino-3H-spiro[furo[2,3-b]pyridine-2,4′-piperidin]-1′-yl]-5-(2,3-dichlorophenyl)-6-methylpyrimidine-4-carboxamide]	268 nM	–	–
CC1(N)CCN(c2nc(N)c(-c3cccc(Cl)c3Cl)c(C(N)=O)n2)CC1 [Compound 27, (4P)-6-amino-2-(4-amino-4-methylpiperidin-1-yl)-5-(2,3-dichlorophenyl)pyrimidine-4-carboxamide]	–	–	Cmax Normalized to 1 mgk [3]: 48 ng/mL; AUC (normalized 1 mpk) [3]: 230 ng·h/mL; Exposure compared to SHP-099 [3]: higher exposure
NC(=O)c1nc(N2CCC3(CC2)Cc2ccccc2[C@H]3N)nc(N)c1-c1cccc(Cl)c1Cl (atropisomer, axis not shown; (M)) [Compound 118, (5M)-6-amino-2-[(1S)-1-amino-1,3-dihydrospiro[indene-2,4′-piperidin]-1′-yl]-5-(2,3-dichlorophenyl)pyrimidine-4-carboxamide]	114 nM	–	–
Cc1nc(N2CCC3(CC2)Cc2ccccc2[C@H]3N)nc(C(N)=O)c1-c1cccc(Cl)c1Cl (atropisomer, axis not shown; (M)) [Compound 119, (M)-2-[(1S)-1-amino-1,3-dihydrospiro[indene-2,4′-piperidin]-1′-yl]-5-(2,3-dichlorophenyl)-6-methylpyrimidine-4-carboxamide]	21 nM	–	–
CC1(N)CCN(c2cnc(-c3cccc(Cl)c3Cl)c(N)n2)CC1 [SHP-099, SHP099, reference compound]	–	–	Cmax Normalized to 1 mgk [3]: 48 ng/mL; AUC (normalized 1 mpk) [3]: 129 ng·h/mL

Now from value to molecule, other results behind:

IC50 [1]	IC50 [2]	SMILES	other results
1 nM	–	NC(=O)c1nc(N2CCC3(CC2)Cc2ccccc2[C@H]3N)nc(N)c1-c1cccc(Cl)c1Cl (single isomer, unassigned) [Compound 117]	–
2240 nM	–	NC(=O)c1nc(N2CCC3(CC2)Oc2ncccc2[C@@H]3N)nc(N)c1-c1cccc(Cl)c1Cl (atropisomer, axis not shown; (M)) [Compound 130, (4M)-6-amino-2-[(3R)-3-amino-3H-spiro[furo[2,3-b]pyridine-2,4-piperidin]-1-yl]-5-(2,3-dichlorophenyl)pyrimidine-4-carboxamide]	–
–	52 nM	C[C@@H]1OCC2(CCN(c3nc(N)c(-c4cccc(Cl)c4Cl)c(C(N)=O)n3)CC2)[C@@H]1N (atropisomer, axis not shown; (P)) [Compound 66, (5P)-6-amino-2-[(3S,4S)-4-amino-3-methyl-2-oxa-8-azaspiro[4.5]decan-8-yl]-5-(2,3-dichlorophenyl)pyrimidine-4-carboxamide]	–
